This note sets out measurements from patent publication US11713338B2, “Cyclic peptides multimers targeting α-4-β-7 integrin” (priority 2016, dated 2023).

Where two headings read alike, the source gives them in different places.

One may read the EC50 as the concentration at which the effect is half-maximal.

The assay has as its target T1, integrin α4β7 on α4β7+ memory T helper cells (Homo sapiens, UniProt P13612+P26010).
T1 construct: endogenous in cells
T1 sequence (P13612 34-1032): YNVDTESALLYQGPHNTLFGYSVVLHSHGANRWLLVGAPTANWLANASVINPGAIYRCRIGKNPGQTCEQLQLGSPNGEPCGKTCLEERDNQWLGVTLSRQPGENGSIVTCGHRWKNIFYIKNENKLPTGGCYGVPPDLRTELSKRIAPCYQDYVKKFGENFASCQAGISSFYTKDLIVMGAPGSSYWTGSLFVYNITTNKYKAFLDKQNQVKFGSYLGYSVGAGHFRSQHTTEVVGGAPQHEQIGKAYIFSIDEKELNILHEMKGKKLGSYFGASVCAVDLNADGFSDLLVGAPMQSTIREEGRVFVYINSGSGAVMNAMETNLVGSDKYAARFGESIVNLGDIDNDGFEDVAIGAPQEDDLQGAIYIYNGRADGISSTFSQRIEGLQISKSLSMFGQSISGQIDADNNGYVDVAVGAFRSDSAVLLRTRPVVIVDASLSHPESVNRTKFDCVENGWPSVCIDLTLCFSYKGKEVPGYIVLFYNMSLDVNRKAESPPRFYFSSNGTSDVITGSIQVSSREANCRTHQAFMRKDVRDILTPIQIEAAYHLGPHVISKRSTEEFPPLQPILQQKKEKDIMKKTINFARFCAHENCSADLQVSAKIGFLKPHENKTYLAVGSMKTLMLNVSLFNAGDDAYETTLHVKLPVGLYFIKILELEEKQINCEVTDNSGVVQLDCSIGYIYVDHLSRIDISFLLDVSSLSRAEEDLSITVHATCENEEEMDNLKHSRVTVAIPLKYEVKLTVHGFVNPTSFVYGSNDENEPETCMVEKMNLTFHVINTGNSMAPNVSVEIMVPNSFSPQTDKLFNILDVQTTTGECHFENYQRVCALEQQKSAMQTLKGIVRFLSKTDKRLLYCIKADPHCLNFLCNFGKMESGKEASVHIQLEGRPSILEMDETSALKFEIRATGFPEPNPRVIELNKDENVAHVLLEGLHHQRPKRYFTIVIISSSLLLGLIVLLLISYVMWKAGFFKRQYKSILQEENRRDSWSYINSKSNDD
T1 sequence (P26010 20-798): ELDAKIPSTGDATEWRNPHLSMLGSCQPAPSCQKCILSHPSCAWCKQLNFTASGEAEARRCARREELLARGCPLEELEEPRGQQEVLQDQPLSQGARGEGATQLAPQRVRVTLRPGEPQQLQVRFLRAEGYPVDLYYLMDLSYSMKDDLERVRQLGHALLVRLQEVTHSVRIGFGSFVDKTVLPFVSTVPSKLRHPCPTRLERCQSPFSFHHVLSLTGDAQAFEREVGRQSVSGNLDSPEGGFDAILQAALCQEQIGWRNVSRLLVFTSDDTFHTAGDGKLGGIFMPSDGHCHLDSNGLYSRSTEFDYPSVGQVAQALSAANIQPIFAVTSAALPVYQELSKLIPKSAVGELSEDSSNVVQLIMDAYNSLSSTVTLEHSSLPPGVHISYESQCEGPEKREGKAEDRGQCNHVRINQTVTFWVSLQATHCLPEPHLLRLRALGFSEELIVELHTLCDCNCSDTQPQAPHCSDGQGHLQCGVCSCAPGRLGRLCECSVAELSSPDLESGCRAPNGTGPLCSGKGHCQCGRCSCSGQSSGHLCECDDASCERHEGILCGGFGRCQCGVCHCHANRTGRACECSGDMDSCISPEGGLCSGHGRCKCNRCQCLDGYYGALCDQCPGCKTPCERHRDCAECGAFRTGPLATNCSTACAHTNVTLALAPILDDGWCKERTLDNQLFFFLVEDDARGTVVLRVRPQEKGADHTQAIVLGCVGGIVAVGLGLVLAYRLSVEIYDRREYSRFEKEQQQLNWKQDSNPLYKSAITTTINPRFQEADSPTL
As to the kind of experiment: MAdCAM-1 competition / receptor occupancy assay in human whole blood, α4β7-positive Th memory cells. Type of assay: cell-based. Conditions: human whole blood; for IC50: inhibition of MAdCAM-1 binding to α4β7-positive Th memory cells, FACS. How it is done: Analyte Competition Assay in CD4+ Integrin α4+β7-Lo Memory T Cells
Receptor occupancy in primary cells was determined by measuring the amount of biotinylated human recombinant MAdCAM-1-FC or human recombinant VCAM-1-Fc bound to selected cell populations using flow cytometry. Human recombinant MAdCAM-1-FC or human recombinant VCAM-1-FC (R&D systems) were biotinylated using commercially available reagents and protocol (Pierce).
Whole blood was collected from human donors in sodium heparin tubes. […] Cells were washed twice with 1 mL of 1X DPBS calcium magnesium free (CMF) (ThermoFisher Scientific) and resuspended in 100 microL of DPBS CMF.
Biotinylated human recombinant MAdCAM-1-Fc or VCAM-1-Fc were added at saturating concentration and incubated at room temperature for 1 hour. […] Cells were washed with 1 mL stain buffer-FBS (BD Biosciences) and resuspended in 100 μl stain Buffer-FBS (BD Biosciences) containing 4 mM MnCl2. […] Cells were then washed with 1 mL stain buffer-FBS and resuspended in […] stain buffer-FBS. The cells were incubated in the dark for 30 minutes at room temperature with 1 ul Streptavidin APC (Biolegend 0.2 mg/ml) and a panel of antibodies for the detection of memory T helper a4b7-positive cells subset. And amount of 5.0 ul each of the following antibodies were used; CD45 FITC (BioLegend 200 ug/ml), CD29 APC Cy7 (BioLegend 100 ug/ml), Integrin beta7 PE, (BioLegend concentration 50 μg/mL), CD49d V421 (BioLegend 50 μg/mL), CD3 V510 (BioLegend 30 μg/mL), CD4 PECy7 (BioLegend 100 μg/mL), CD45RO PerCP, BioLegend 200 μg/mL). The cells were then washed with stain-buffer-FBS and resuspended in 150 microL stain buffer-FBS for acquisition on the flow cytometer (BD FACSCanto™ flow cytometer and BDFACSDiva™ software). FACS data was acquire by electronic gating on the basis of forward versus side scatter, The cytometer was set to collect 20,000 events in each tube. Cell population were determined using the following markers, CD45+, CD3+, CD4+, CD45RO+, CD49d+, integrin b7, biotinylated ligands.
Compound receptor occupancy was defined as the decrease in the number of integrin β7+ or integrin β7-lo cells binding biotinylated rhMAdCAM-1 or rhVCAM-1, respectively.
Receptor occupancy was calculated with the following equation: 100−((% ligand-positive cells with compound/% ligand-positive cells DMSO)*100) In Vivo T Lymphocyte Trafficking Analysis in Mouse Model of Colitis

[1] abbreviates: read-out: MADCAM FACS α4β7 Th mem.

`CC(C)C[C@@H]1NC(=O)c2ccc(-c3ccc(N4CCN(C(=O)COCC(=O)N5CCN(c6ccc(-c7ccc8cc7CNC(=O)[C@@H]7CCCN7[C@H](C(=O)NC(C)(C)C)[C@H](C)NC(=O)[C@H]([C@@H](C)O)NC(=O)[C@H](CC(=O)O)NC(=O)[C@H](CC(C)C)NC8=O)cc6)CC5)CC4)cc3)c(c2)CNC(=O)[C@@H]2CCCN2[C@H](C(=O)NC(C)(C)C)[C@H](C)NC(=O)[C@H]([C@@H](C)O)NC(=O)[C@H](CC(=O)O)NC1=O` [Compound 390]: the EC50 (FIG. 7, read-out: EC50, competition with saturating amount of MAdCAM) is 90 nM. The IC50 under setting [1] stood at 90 nM.

In the case of `CC(C)C[C@@H]1NC(=O)C[C@H](CCCCN)N(C)C(=O)[C@H](CCCCN)NC(=O)[C@@H]2CCCN2[C@H](C(=O)NC(C)(C)C)[C@H](C)NC(=O)[C@H]([C@@H](C)O)NC(=O)[C@H](CC(=O)O)NC1=O` [Compound 456], the receptor occupancy at 1 µM (1000 nM, read-out: receptor occupancy at maximum concentration) came out at 15%. Further, the IC50 (read-out: MADCAM FACS a4b7 Th mem) was determined as 1000 nM.

`CC(C)C[C@@H]1NC(=O)c2ccc(-c3ccc(N4CCN(C(=O)[C@H]5CCC[C@H]5C(=O)N5CCN(c6ccc(-c7ccc8cc7CNC(=O)[C@@H]7CCCN7[C@H](C(=O)NC(C)(C)C)[C@H](C)NC(=O)[C@H]([C@@H](C)O)NC(=O)[C@H](CC(=O)O)NC(=O)[C@H](CC(C)C)NC8=O)cc6)CC5)CC4)cc3)c(c2)CNC(=O)[C@@H]2CCCN2[C@H](C(=O)NC(C)(C)C)[C@H](C)NC(=O)[C@H]([C@@H](C)O)NC(=O)[C@H](CC(=O)O)NC1=O` [Compound 458]: the IC50 under setting [1] was found to be 66 nM. Same read-out and setting: the same measure for `CC(C)C[C@@H]1NC(=O)c2ccc(-c3ccc(N4CCN(C(=O)C56CC7CC(C5)CC(C(=O)N5CCN(c8ccc(-c9ccc%10cc9CNC(=O)[C@@H]9CCCN9[C@H](C(=O)NC(C)(C)C)[C@H](C)NC(=O)[C@H]([C@@H](C)O)NC(=O)[C@H](CC(=O)O)NC(=O)[C@H](CC(C)C)NC%10=O)cc8)CC5)(C7)C6)CC4)cc3)c(c2)CNC(=O)[C@@H]2CCCN2[C@H](C(=O)NC(C)(C)C)[C@H](C)NC(=O)[C@H]([C@@H](C)O)NC(=O)[C@H](CC(=O)O)NC1=O` [Compound 460]: 107 nM; for `CC(C)C[C@@H]1NC(=O)c2ccc(-c3ccc(N4CCN(C(=O)C5(C(=O)N6CCN(c7ccc(-c8ccc9cc8CNC(=O)[C@@H]8CCCN8[C@H](C(=O)NC(C)(C)C)[C@H](C)NC(=O)[C@H]([C@@H](C)O)NC(=O)[C@H](CC(=O)O)NC(=O)[C@H](CC(C)C)NC9=O)cc7)CC6)Cc6ccccc6C5)CC4)cc3)c(c2)CNC(=O)[C@@H]2CCCN2[C@H](C(=O)NC(C)(C)C)[C@H](C)NC(=O)[C@H]([C@@H](C)O)NC(=O)[C@H](CC(=O)O)NC1=O` [Compound 461]: 93 nM; for `COc1cc(C(=O)N2CCN(c3ccc(-c4ccc5cc4CNC(=O)[C@@H]4CCCN4[C@H](C(=O)NC(C)(C)C)[C@H](C)NC(=O)[C@H]([C@@H](C)O)NC(=O)[C@H](CC(=O)O)NC(=O)[C@H](CC(C)C)NC5=O)cc3)CC2)cc(-c2ccc(C(=O)N3CCN(c4ccc(-c5ccc6cc5CNC(=O)[C@@H]5CCCN5[C@H](C(=O)NC(C)(C)C)[C@H](C)NC(=O)[C@H]([C@@H](C)O)NC(=O)[C@H](CC(=O)O)NC(=O)[C@H](CC(C)C)NC6=O)cc4)CC3)cc2F)c1` [Compound 464]: 232 nM. On to `CC(C)C[C@@H]1NC(=O)c2ccc(-c3ccc(N4CCN(C(=O)c5ccc(-c6cccc(C(=O)N7CCN(c8ccc(-c9ccc%10cc9CNC(=O)[C@@H]9CCCN9[C@H](C(=O)NC(C)(C)C)[C@H](C)NC(=O)[C@H]([C@@H](C)O)NC(=O)[C@H](CC(=O)O)NC(=O)[C@H](CC(C)C)NC%10=O)cc8)CC7)n6)nc5)CC4)cc3)c(c2)CNC(=O)[C@@H]2CCCN2[C@H](C(=O)NC(C)(C)C)[C@H](C)NC(=O)[C@H]([C@@H](C)O)NC(=O)[C@H](CC(=O)O)NC1=O` [Compound 466], for which the IC50 under setting [1] amounted to 164 nM.

Take `CC(C)C[C@@H]1NC(=O)c2ccc(-c3ccc(N4CCN(C(=O)c5ccc(C(=O)N6CCN(c7ccc(-c8ccc9cc8CNC(=O)[C@@H]8CCCN8[C@H](C(=O)NC(C)(C)C)[C@H](C)NC(=O)[C@H]([C@@H](C)O)NC(=O)[C@H](CC(=O)O)NC(=O)[C@H](CC(C)C)NC9=O)cc7)CC6)s5)CC4)cc3)c(c2)CNC(=O)[C@@H]2CCCN2[C@H](C(=O)NC(C)(C)C)[C@H](C)NC(=O)[C@H]([C@@H](C)O)NC(=O)[C@H](CC(=O)O)NC1=O` [Compound 470]: the IC50 under setting [1] came to 81 nM. Same read-out and setting: the same measure for `CC(C)C[C@@H]1NC(=O)c2ccc(-c3ccc(N4CCN(C(=O)c5ccc(-c6ccc(C(=O)N7CCN(c8ccc(-c9ccc%10cc9CNC(=O)[C@@H]9CCCN9[C@H](C(=O)NC(C)(C)C)[C@H](C)NC(=O)[C@H]([C@@H](C)O)NC(=O)[C@H](CC(=O)O)NC(=O)[C@H](CC(C)C)NC%10=O)cc8)CC7)cc6)cc5)CC4)cc3)c(c2)CNC(=O)[C@@H]2CCCN2[C@H](C(=O)NC(C)(C)C)[C@H](C)NC(=O)[C@H]([C@@H](C)O)NC(=O)[C@H](CC(=O)O)NC1=O` [Compound 474]: 74 nM; for `CC(C)C[C@@H]1NC(=O)c2ccc(-c3ccc(N4CCN(C(=O)c5cc(F)ccc5-c5ccc(F)cc5C(=O)N5CCN(c6ccc(-c7ccc8cc7CNC(=O)[C@@H]7CCCN7[C@H](C(=O)NC(C)(C)C)[C@H](C)NC(=O)[C@H]([C@@H](C)O)NC(=O)[C@H](CC(=O)O)NC(=O)[C@H](CC(C)C)NC8=O)cc6)CC5)CC4)cc3)c(c2)CNC(=O)[C@@H]2CCCN2[C@H](C(=O)NC(C)(C)C)[C@H](C)NC(=O)[C@H]([C@@H](C)O)NC(=O)[C@H](CC(=O)O)NC1=O` [Compound 475]: 74 nM.
